Measurements taken from publication PMC10895697 (JAC-Antimicrobial Resistance, 2024).

Tests used:
S. aureus 1815 (MRSA) = experiment: MIC/MBC by broth microdilution reference method; assay type: cell-based, Staphylococcus aureus
[1] = test system: S. aureus ATCC 29213 (MSSA reference strain); experiment: MIC/MBC by broth microdilution reference method; assay type: cell-based, Staphylococcus aureus
S. aureus 1334 (MSSA) = experiment: MIC/MBC by broth microdilution reference method; assay type: cell-based, Staphylococcus aureus
S. aureus 1817 (MSSA) = experiment: MIC/MBC by broth microdilution reference method; assay type: cell-based, Staphylococcus aureus
S. aureus 1814 (MRSA) = experiment: MIC/MBC by broth microdilution reference method; assay type: cell-based, Staphylococcus aureus
S. aureus 1333 (MSSA) = experiment: MIC/MBC by broth microdilution reference method; assay type: cell-based, Staphylococcus aureus
all S. aureus isolates = experiment: MIC/MBC by broth microdilution, summary over all isolates; assay type: cell-based, Staphylococcus aureus; conditions: for MIC: Staphylococcus aureus, read-out: MICs for all S. aureus isolates
S. aureus 1818 (MSSA) = experiment: MIC/MBC by broth microdilution reference method; assay type: cell-based, Staphylococcus aureus
S. aureus 1816 (MSSA) = experiment: MIC/MBC by broth microdilution reference method; assay type: cell-based, Staphylococcus aureus
MSSA 1334 = experiment: Mouse model of septic arthritis; assay type: in vivo; conditions: MSSA 1334-infected mice, Pep16 10 mg/kg or vancomycin 100 mg/kg subcutaneous daily
Protocol: Female Swiss mice, obtained from Janvier Labs and aged between 11 and 13 weeks with an approximate weight of 34 g, were used. The experiments were conducted in the ARCHE animal facility (Biosit) in Rennes. Mice were inoculated IV with 200 μL of a 0.9% NaCl solution containing approximately 10^8 cfu of the 1334 strain (MSSA). […] These treatments were administered daily for a duration of 7 days. […] The mice were monitored on a daily basis, and on the seventh day, they were humanely euthanized using CO2. Subsequently, knee joints, spleen and kidneys were excised, weighed and homogenized in 0.9% NaCl using a Polytron PT 3100D homogenizer (Kinematica, Switzerland). Bacterial loads were determined by plating serial dilutions onto BHI agar and expressed as log10 cfu/g.
Figure 3. Bacterial loads (in log cfu/g) at Day 7 in knee joints, kidneys and spleen from mice infected by MSSA 1334. Mice were initially inoculated with approximately 1 × 10^8 cfu of MSSA 1334. […] Treatments were administered via subcutaneous injection and continued daily until the conclusion of the experiment. Individual dots on the graph represent cfu counts for single animals (enumerated at Day 7), with black horizontal lines indicating median values. The experiments were performed with five mice per condition, in triplicate for Pep16 and saline solution, and in duplicate for vancomycin. […]

S. aureus = test system: S. aureus; design: method as in ref 19 (Abad et al.); conditions: concentrations 10x or 100x respective MICs; ref 19 (Abad et al.); cited from earlier work
[2] = strain 1815, MRSA gentamicin and erythromycin resistant, broth microdilution
[3] = reference strain ATCC 29213, MSSA, broth microdilution
[4] = strain 1334, MSSA multi-susceptible, broth microdilution
[5] = strain 1817, MSSA erythromycin resistant, broth microdilution
[6] = strain 1814, MRSA ciprofloxacin resistant, broth microdilution
[7] = strain 1333, MSSA multi-susceptible, broth microdilution
[8] = strain 1818, MSSA multi-susceptible, broth microdilution
[9] = strain 1816, MSSA multi-susceptible, broth microdilution

teicoplanin [TEC]
1 µg/mL: MBC (S. aureus 1815 (MRSA); [2]) | MBC [1, 3] | MBC (S. aureus 1817 (MSSA); [5]) | MBC (S. aureus 1814 (MRSA); [6]) | MBC (S. aureus 1333 (MSSA); [7]) | MIC (S. aureus 1818 (MSSA); [8])
0.25 to 1 mg/L: MICs for all S. aureus isolates (all S. aureus isolates; summary over all S. aureus isolates of Table 1, broth microdilution)
2 µg/mL: MBC (S. aureus 1818 (MSSA); [8])
0.5 µg/mL: MIC (S. aureus 1815 (MRSA); [2]) | MIC [1, 3] | MBC (S. aureus 1334 (MSSA); [4]) | MIC (S. aureus 1817 (MSSA); [5]) | MIC (S. aureus 1814 (MRSA); [6]) | MIC (S. aureus 1333 (MSSA); [7]) | MBC (S. aureus 1816 (MSSA); [9])
0.25 µg/mL: MIC (S. aureus 1334 (MSSA); [4]) | MIC (S. aureus 1816 (MSSA); [9])

CN[C@H](CC(C)C)C(=O)N[C@H]1C(=O)N[C@@H](CC(N)=O)C(=O)N[C@H]2C(=O)N[C@H]3C(=O)N[C@H](C(=O)N[C@H](C(=O)O)c4cc(O)cc(O)c4-c4cc3ccc4O)[C@H](O)c3ccc(c(Cl)c3)Oc3cc2cc(c3O[C@@H]2O[C@H](CO)[C@@H](O)[C@H](O)[C@H]2O[C@H]2C[C@](C)(N)[C@H](O)[C@H](C)O2)Oc2ccc(cc2Cl)[C@H]1O [VAN, vancomycin]
0.5 µg/mL: MBC (S. aureus 1815 (MRSA); Staphylococcus aureus, MRSA) | MIC (S. aureus 1815 (MRSA); Staphylococcus aureus, MRSA) | MBC ([1]; Staphylococcus aureus) | MIC ([1]; Staphylococcus aureus) | MBC (S. aureus 1334 (MSSA); Staphylococcus aureus, MSSA) | MIC (S. aureus 1334 (MSSA); Staphylococcus aureus, MSSA) | MBC (S. aureus 1817 (MSSA); Staphylococcus aureus, MSSA) | MIC (S. aureus 1817 (MSSA); Staphylococcus aureus, MSSA) | MBC (S. aureus 1814 (MRSA); Staphylococcus aureus, MRSA) | MIC (S. aureus 1814 (MRSA); Staphylococcus aureus, MRSA) | MBC (S. aureus 1333 (MSSA); Staphylococcus aureus, MSSA) | MIC (S. aureus 1333 (MSSA); Staphylococcus aureus, MSSA) | MIC (all S. aureus isolates) | MBC (S. aureus 1818 (MSSA); Staphylococcus aureus, MSSA) | MIC (S. aureus 1818 (MSSA); Staphylococcus aureus, MSSA) | MBC (S. aureus 1816 (MSSA); Staphylococcus aureus, MSSA) | MIC (S. aureus 1816 (MSSA); Staphylococcus aureus, MSSA)
had survived at Day 7: survival of infected mice at Day 7 (MSSA 1334)

CO[C@H]1/C=C/O[C@@]2(C)Oc3c(C)c(O)c4c(c3C2=O)C2=NC3(CCN(CC(C)C)CC3)NC2=C(NC(=O)/C(C)=C\C=C\[C@H](C)[C@H](O)[C@@H](C)[C@@H](O)[C@@H](C)[C@H](OC(C)=O)[C@@H]1C)C4=O [rifabutin]
around 62.1%: reduction in intracellular bacteria (S. aureus)

CCCCCCCCCC(=O)N[C@@H](Cc1c[nH]c2ccccc12)C(=O)N[C@H](CC(N)=O)C(=O)N[C@@H](CC(=O)O)C(=O)N[C@@H]1C(=O)NCC(=O)N[C@@H](CCCN)C(=O)N[C@@H](CC(=O)O)C(=O)N[C@H](C)C(=O)N[C@@H](CC(=O)O)C(=O)NCC(=O)N[C@H](CO)C(=O)N[C@@H]([C@H](C)CC(=O)O)C(=O)N[C@@H](CC(=O)c2ccccc2N)C(=O)O[C@@H]1C [DAP, daptomycin]
0.25 µg/mL: MIC (S. aureus 1815 (MRSA); Staphylococcus aureus, MRSA) | MIC ([1]; Staphylococcus aureus) | MIC (S. aureus 1334 (MSSA); Staphylococcus aureus, MSSA) | MIC (S. aureus 1817 (MSSA); Staphylococcus aureus, MSSA) | MIC (S. aureus 1814 (MRSA); Staphylococcus aureus, MRSA) | MIC (S. aureus 1333 (MSSA); Staphylococcus aureus, MSSA) | MIC (all S. aureus isolates) | MIC (S. aureus 1818 (MSSA); Staphylococcus aureus, MSSA) | MIC (S. aureus 1816 (MSSA); Staphylococcus aureus, MSSA)
0.5 µg/mL: MBC (S. aureus 1815 (MRSA); Staphylococcus aureus, MRSA) | MBC ([1]; Staphylococcus aureus) | MBC (S. aureus 1334 (MSSA); Staphylococcus aureus, MSSA) | MBC (S. aureus 1817 (MSSA); Staphylococcus aureus, MSSA) | MBC (S. aureus 1814 (MRSA); Staphylococcus aureus, MRSA) | MBC (S. aureus 1333 (MSSA); Staphylococcus aureus, MSSA) | MBC (S. aureus 1818 (MSSA); Staphylococcus aureus, MSSA) | MBC (S. aureus 1816 (MSSA); Staphylococcus aureus, MSSA)
